Source: patent US6245758A, “Methods of use for peroxynitrite decomposition catalysts, pharmaceutical compositions therefor” (priority 1996, dated 2001)

What was measured:
[1] = test system: CuZnSOD; experiment: Protection of CuZnSOD from inactivation by peroxynitrite using peroxynitrite decomposition catalysts; assay type: biochemical, bovine; conditions: Fe(III)TMPyP 0.5 and 1.0 uM, Fe(III)TMPS 1.0 and 5.0 uM; peroxynitrite 0-100 uM
Description: Assay solutions were prepared as described above except for the addition of various of peroxynitrite decomposition catalyst. The final solution volume was maintained at 10 mL. Thus, to the assay solutions Fe(III)TMPyP (0.5 and 1.0 uM final concentration) and Fe(III)TMPS (1.0 and 5.0 uM final concentration) was added. The solution were then treated with various amounts of peroxynitrite such that the final concentrations of 0,25, 50, 75 and 100 uM were achieved. Following treatment with peroxynitrite EDTA was added to a final concentration of 250 uM. The solutions were then assayed for SOD activity.

[2] = Catalysis of dismutation of superoxide; conditions: under the assay conditions employed
[3] = Stopped-flow kinetic analysis of catalytic decomposition of peroxynitrite by metal complexes; conditions: pH = 7.4, 22° C.
Description: To screen metal complexes for peroxynitrite decomposition catalytic activity of the present invention, peroxynitrite is prepared and isolated as its sodium salt by the reaction of acidic hydrogen peroxide with sodium nitrite followed by rapid quenching with NaOH as set out by Halfpenny and Robinson, in J. Chem. So., 1952, 928-938. Peroxynitrite has an absorbance maximum at 302 nm with an extinction coefficient of 1670 M^-1 cm^-1. Therefore, it is possible to directly observe the decomposition of peroxynitrite by stop-flow spectrophotometric analysis by monitoring the decomposition of the absorbance at 302 nm. That is, such observation of the decomposition of peroxynitrite at a rate accelerated over the natural decomposition rate with the addition of the metal complex identifies a compound of the present invention.
Kinetic measurements were made on an OLIS Rapid Scanning Stopped-Flow Spectrometer (On-Line Instrument Systems Inc., Bogart, Ga.)) using the OLISRSM-1000 Operating system for data acquisition and manipulation.
Thus, in a typical experiment the natural background decomposition rate of sodium peroxynitrite was determined as follows. A 24 mM stock solution of sodium peroxynitrite in 50 mM NaOH is load into the small volume syringe and 100 mM potassium phosphate pH=7.4 is charged into the large volume syringe of the stopped-flow spectrophotometer. All stopped -flow measurements were made at 22 ° C. Injection of the solutions into the sample compartment results in ~25 fold dilution of the stock sodium peroxynitrite. […] To test for catalytic peroxynitrite decomposition activity, the metal complex was dissolved in 100 mM potassium phosphate buffer pH=7.4 and loaded into the large syringe and the decomposition of peroxynitrite was monitored as described above. The catalytic rate constant (kcat M-1 sec^-1) for the complexes tested was determined by varying the complex concentration and plotting kobs vs [complex] Table 1. The kobs were obtained from averages of three stopped flow analysis at each catalyst concentration.

[4] = test system: human aortic endothelial cells; experiment: Endothelial cell injury assay (51Cr release), neutrophil-mediated; assay type: cell-based; conditions: 2 h; TNF/C5a-activated neutrophils; FIG. 7
Description: Peroxynitrite catalyst, Fe(TMPyP), was added to neutrophils in the cell injury assay immediately before activation by TNF/C5a. After 2 h, the amount of specific cell injury was assessed by the amount of radiolabel released into the medium. Values represent the average of three replicas +/-SEM. *p<0.01 vs. 0 uM control by Dunnett's t Test.
[…]: Human recombinant tumor necrosis factor-alpha (TNF-a) was obtained from Genzyme Corporation, Cambridge, MA. Human recombinant complement C5a and L-arginine (L-arg) was purchased from Sigma Chemical Company, St. Louis, Mo. Authentic peroxynitrite in 50 mM NaOH was prepared as described above.
Preparation of Neutrophils: Human neutrophils were isolated from peripheral blood of healthy donors (Look, D. C., Rapp, S. R., Keller, B. T., and Holtzman, M. J. Am. J. Physiol., 263, L79-L87 [1992]). […]
Endothelial Cell Injury Assays: The cytotoxic effects of stimulated neutrophils or peroxynitrite on endothelial cells was determined using a ^51 Cr-release assay as described by Moldow (Moldow et. al. Methods Enzymol., 105, 378-385, [1984]). […]
^51 Cr release was determined by aspiration of the supernatant from each well (soluble fraction). […] Both fractions were analyzed by gamma scintillation spectrometry. Results were expressed as percent ^51 Cr release as follows: % release=cpm (soluble+nonadherent/total cpm per well)×100. […]

SMILES	protection of CuZnSOD against inactivation by peroxynitrite [1]	catalysis of the dismutation of superoxide [2]	kcat, catalytic rate constant for the decomposition of sodium peroxynitrite [3] [M⁻¹ s⁻¹]	inhibition of neutrophil-mediated injury to endothelial cells [4]
CC(=O)[O-].Cc1c(-c2c3nc(c(-c4c(C)c(S(=O)(=O)[O-])c(C)c(S(=O)(=O)[O-])c4C)c4ccc([n-]4)c(-c4c(C)c(S(=O)(=O)[O-])c(C)c(S(=O)(=O)[O-])c4C)c4nc(c(-c5c(C)c(S(=O)(=O)[O-])c(C)c(S(=O)(=O)[O-])c5C)c5ccc2[n-]5)C=C4)C=C3)c(C)c(S(=O)(=O)[O-])c(C)c1S(=O)(=O)[O-].[Fe+3].[Na+].[Na+].[Na+].[Na+].[Na+].[Na+].[Na+].[Na+] [Fe(III)TMPS, Acetato-5,10,15,20-tetrakis(3,5-disulfonatomesityl)porphyrin Iron (III) octasodium salt]	concentration dependant protection of CuZnSOD against inactivation by peroxynitrite	not to be effective catalysts for the dismutation of superoxide	160000	–
CC(=O)[O-].C[n+]1ccc(-c2c3nc(c(-c4cc[n+](C)cc4)c4ccc([n-]4)c(-c4cc[n+](C)cc4)c4nc(c(-c5cc[n+](C)cc5)c5ccc2[n-]5)C=C4)C=C3)cc1.Cc1ccc(S(=O)(=O)[O-])cc1.Cc1ccc(S(=O)(=O)[O-])cc1.Cc1ccc(S(=O)(=O)[O-])cc1.Cc1ccc(S(=O)(=O)[O-])cc1.[Fe+3] [Fe(III)TMPyP, Acetato (5,10,15,20-tetrakis(N-methyl-4-pyridyl)porphinato) iron (III) tetra-tosylate]	concentration dependant protection of CuZnSOD against inactivation by peroxynitrite	not to be effective catalysts for the dismutation of superoxide	2.75e+06	Inhibition of neutrophil-mediated injury to human aortic endothelial cells
